In patent US12233041B2, “Disulfonate stilbenes for use in the treatment of proliferative diseases” (UNIVERSITÉ DE NANTES, priority 2018, dated 2025):
“Also recorded” adds a separate entry of the source.

Assays:
Rad51 = target: T1, Rad51 (Homo sapiens, UniProt Q06609); experiment: RAD51 nucleofilament formation by Bio-Layer Interferometry (BLItz), binding of Rad51 to ssDNA
T1 sequence (Q06609 1-339): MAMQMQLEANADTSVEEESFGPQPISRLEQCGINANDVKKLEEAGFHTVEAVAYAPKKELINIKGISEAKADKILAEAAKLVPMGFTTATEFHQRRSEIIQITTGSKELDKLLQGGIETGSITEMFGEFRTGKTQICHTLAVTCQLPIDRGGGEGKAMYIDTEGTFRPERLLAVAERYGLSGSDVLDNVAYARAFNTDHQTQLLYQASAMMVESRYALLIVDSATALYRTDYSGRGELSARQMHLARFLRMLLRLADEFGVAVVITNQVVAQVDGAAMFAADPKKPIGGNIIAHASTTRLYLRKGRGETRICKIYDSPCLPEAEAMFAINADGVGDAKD
Method: The binding of Rad51 to ssDNA was monitored and quantified by Bio-Layer Interferometry technology using the BLItz platform (FortéBio Inc.). The procedure includes four steps: (1) the baseline in buffer A containing 1×PBS, 10 mM MgCl2 and 0.0075% Tween20 was recorded for 20 s; (2) loading and binding of Rad51 were measured for 40 s using 1.5 μM Rad51 and 1 mM ATP in buffer A; (3) the dissociation of Rad51 from ssDNA was recorded for 20 s in buffer A; (4) the ssDNA biosensor was regenerated using baths of 50 mM NaOH. Except for the step 2, which used 4 μL drop of the protein sample, the steps 1, 3 and 4 used 250 μL solutions in 0.5 mL tube. The measurement parameters were as follows: room temperature measurement and stirring speed of 2200 rpm. To investigate the effect of CSB and analogs to the ssDNA binding of Rad51, the molecule was included in the protein sample of the step 2 at the indicated concentrations and incubated for 5 min before loading on the biosensor. (Normand, A. et al., “Identification and characterization of human Rad51 inhibitors by screening of an existing drug library.”, Biochemical Pharmacology, October 2014, Vol. 91, No. 3, pp. 293-300).
A test based on interferometry (Blitz®, Fortebio) allows the measure of the association kinetics of RAD51 protein with a single-stranded DNA immobilized on a biosensor support in the presence or absence of an inhibitor. The effect of compounds B-1, B-2, B-3, BPQ and X-4 on RAD51 nucleofilament formation has been evaluated in presence of increasing doses of inhibitors. The results are presented on FIG. 2.

HsRad51 = target: T2, HsRad51 (Homo sapiens, UniProt Q06609); experiment: RAD51 oligomerization by SDS-PAGE gel after crosslink; type: biochemical; conditions: 2.5 μM HsRad51, disuccinimidyl suberate crosslink, SDS-PAGE/Western blot; FIG. 1
T2 sequence (Q06609 1-339): T1 sequence (Q06609 1-339)
Method: The reaction was performed at room temperature. 2.5 μm HsRad51 was incubated with the indicated concentrations of tested compounds for 10 min in a buffer containing 20 mm sodium phosphate, 50 mm NaCl, 1 mm MgCl 2, and 1 mm ATP. The cross-linking reactions were initiated by the addition of disuccinimidyl suberate (50 μm) and allowed to proceed for 30 min. Reactions were quenched by the addition of Tris-HCl (pH 7.5, final concentration: 50 mm) followed by subsequent incubations for 15 min. The products were then separated by 12% SDS polyacrylamide gel electrophoresis and detected by Western blot with mouse monoclonal anti-Rad51 antibody (NeoMarkers) and anti-mouse Alexa-Fluor 700-conjugated secondary antibody (Molecular Probes, Eugene, OR). The cross-linked dimer was quantified by an Odyssey Infrared Imaging System scanner (Li-Cor Biosciences) (Martinez, S. F. et al., “Targeting human Rad51 by specific DNA aptamers induces inhibition of homologous recombination”, Biochimie, December 2010, Vol. 92, No. 12, pp. 1832-1838).
The SDS-PAGE electrophoresis after crosslink maintains and immobilizes the RAD51 protein complexes and thus allows visualization of the degree of oligomerization (polymer formation) of the RAD51 protein. The effect of RAD51 protein inhibitors B-1, B-2, B-3, DIDS and X-4 on this key step of RAD51 protein recombinase activity has thus been evaluated. The results are presented on FIG. 1.

activity on nucleofilament formation compared with reference molecule BPQ (Rad51; FIG. 2): comparable to or even better
effect on nucleofilament formation compared with DIDS (Rad51; high dose (50 μM)): same effect
activity on nucleofilament formation compared with reference molecule DIDS (Rad51; low dose (5 μM)): comparable
SMILES: N#Cc1ccc(/C=C/c2ccc(C#N)cc2S(=O)(=O)[O-])c(S(=O)(=O)[O-])c1.[Na+].[Na+] [B-2, Sodium (E)-6,6′-(ethene-1,2-diyl)bis(3-cyanobenzenesulfonate)]
formation of RAD51 protein nucleofilament (relative binding of RAD51 protein with single-stranded DNA) (Rad51; increasing doses of inhibitors, FIG. 2): inhibit; also recorded: very strongly diminished
oligomerization state of RAD51 protein (HsRad51): significant reduction; also recorded: very strongly diminished
